The values that follow come from ChEMBL document CHEMBL3046347, “Synthesis and biological evaluation of novel curcumin analogues as anti-inflammatory, anti-cancer and anti-oxidant agents” (Med Chem Res, 2012).

The target of series [1] is Trypsin (Homo sapiens) (UniProt P07477+P07478+P35030). The series is described as follows: Inhibition of trypsin (unknown origin) using bovine serum albumin as substrate at 1 uM incubated for 20 min prior to substrate addition measured after 25 min by Lowry method. It counts as protein assay.
For series [2], the target named is T1, Beta-glucuronidase (Homo sapiens) (UniProt P08236).
T1 sequence (whole entry): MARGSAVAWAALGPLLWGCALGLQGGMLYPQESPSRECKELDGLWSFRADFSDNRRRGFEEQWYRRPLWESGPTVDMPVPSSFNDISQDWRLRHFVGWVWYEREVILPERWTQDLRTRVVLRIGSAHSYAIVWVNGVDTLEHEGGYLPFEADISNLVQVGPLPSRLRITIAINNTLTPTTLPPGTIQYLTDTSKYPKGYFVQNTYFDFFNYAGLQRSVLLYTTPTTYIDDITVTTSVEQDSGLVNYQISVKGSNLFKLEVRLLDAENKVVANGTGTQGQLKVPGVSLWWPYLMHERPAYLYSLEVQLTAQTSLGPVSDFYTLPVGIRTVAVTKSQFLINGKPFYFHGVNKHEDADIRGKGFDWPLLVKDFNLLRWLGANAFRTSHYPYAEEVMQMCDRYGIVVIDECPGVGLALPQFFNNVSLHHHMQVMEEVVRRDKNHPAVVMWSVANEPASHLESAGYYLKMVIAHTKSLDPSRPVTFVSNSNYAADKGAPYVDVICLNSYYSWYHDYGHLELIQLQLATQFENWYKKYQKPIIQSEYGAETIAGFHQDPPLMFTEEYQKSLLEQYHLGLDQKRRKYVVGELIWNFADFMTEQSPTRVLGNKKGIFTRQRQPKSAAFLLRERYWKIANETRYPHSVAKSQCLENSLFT
The series is described as follows: Inhibition of beta-glucuronidase (unknown origin) using p-nitrophenyl-beta-D-glucopyranosiduronic acid as substrate at 1 uM after 30 min by spectrophotometric analysis.

The target of series [3] is T2, Prostaglandin G/H synthase 2 (Ovis aries) (UniProt P79208).
T2 sequence (whole entry): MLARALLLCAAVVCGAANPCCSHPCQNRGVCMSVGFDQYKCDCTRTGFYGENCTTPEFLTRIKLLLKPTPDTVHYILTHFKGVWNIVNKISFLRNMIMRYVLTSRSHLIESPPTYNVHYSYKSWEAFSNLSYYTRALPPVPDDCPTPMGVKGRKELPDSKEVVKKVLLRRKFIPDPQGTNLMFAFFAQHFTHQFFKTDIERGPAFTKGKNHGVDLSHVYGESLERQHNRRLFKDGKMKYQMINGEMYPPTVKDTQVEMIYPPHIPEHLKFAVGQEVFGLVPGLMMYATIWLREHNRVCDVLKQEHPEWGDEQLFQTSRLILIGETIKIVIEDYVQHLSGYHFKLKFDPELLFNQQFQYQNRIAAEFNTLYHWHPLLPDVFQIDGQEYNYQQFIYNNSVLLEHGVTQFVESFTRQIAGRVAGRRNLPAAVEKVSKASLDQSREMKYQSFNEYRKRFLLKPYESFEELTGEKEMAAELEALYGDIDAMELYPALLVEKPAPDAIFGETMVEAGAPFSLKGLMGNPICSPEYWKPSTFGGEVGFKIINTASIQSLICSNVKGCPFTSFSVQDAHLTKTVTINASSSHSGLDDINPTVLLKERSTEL
As to the kind of experiment: Inhibition of Ovis aries (sheep) COX2 at 1 uM after 5 min by colorimetric analysis.

The test system of series [4] is HCT-116. As to the kind of experiment: Cytotoxicity against Homo sapiens (human) HCT116 cells at 10 uM after 48 hr by propidium iodide-based fluorometric assay. It counts as functional. The settings on record: HCT-116, 48 h, read-out: GI.
In series [5] the test system is ACHN. The series is described as follows: Cytotoxicity against Homo sapiens (human) ACHN cells at 10 uM after 48 hr by propidium iodide-based fluorometric assay. The settings on record: read-out: GI. It counts as functional.
For series [6], the target named is T3, Prostaglandin G/H synthase 1 (Ovis aries) (UniProt P05979).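 Further: colorimetric read-out, measured after 5 min.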
T3 sequence (whole entry): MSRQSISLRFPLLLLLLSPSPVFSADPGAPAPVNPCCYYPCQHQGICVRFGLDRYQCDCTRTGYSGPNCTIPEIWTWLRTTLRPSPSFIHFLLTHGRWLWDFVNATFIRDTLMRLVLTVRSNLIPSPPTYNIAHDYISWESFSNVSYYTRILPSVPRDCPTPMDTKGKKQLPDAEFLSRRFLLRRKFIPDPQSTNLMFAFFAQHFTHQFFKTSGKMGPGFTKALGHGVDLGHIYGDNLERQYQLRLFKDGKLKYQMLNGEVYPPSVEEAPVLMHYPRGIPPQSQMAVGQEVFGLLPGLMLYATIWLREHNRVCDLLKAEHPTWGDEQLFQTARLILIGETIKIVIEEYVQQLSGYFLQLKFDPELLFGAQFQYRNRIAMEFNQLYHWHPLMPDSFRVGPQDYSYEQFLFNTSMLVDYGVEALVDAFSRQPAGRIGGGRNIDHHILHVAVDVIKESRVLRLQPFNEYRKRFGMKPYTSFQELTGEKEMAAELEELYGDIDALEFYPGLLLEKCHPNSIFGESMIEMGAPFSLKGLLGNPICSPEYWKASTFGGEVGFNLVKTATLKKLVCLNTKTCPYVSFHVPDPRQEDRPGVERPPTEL
The note with it: at 1 µM.
Description: Inhibition of Ovis aries (sheep) COX1 at 1 uM after 5 min by colorimetric analysis

In series [7] the test system is PANC-1. The series is described as follows: Cytotoxicity against Homo sapiens (human) PANC1 cells at 10 uM after 48 hr by propidium iodide-based fluorometric assay. It counts as functional. The note with it: PANC-1, 48 h, read-out: GI.
Series [8] is described as follows: Antioxidant activity assessed as reduction of potassium ferricynide at 1 uM after 10 min by spectrophotometric analysis. It counts as functional. On the set-up: scale not given: the % may be the effect or the level left.
Series [9] deals with THP-1. The series is described as follows: Anti-inflammatory activity in Homo sapiens (human) THP1 cells assessed as inhibition of LPS-induced TNFalpha production at 10 uM incubated for 30 min prior to LPS-challenge measured after 24 hr by ELISA. It counts as functional.
The test system of series [10] is THP-1. As to the kind of experiment: Anti-inflammatory activity in Homo sapiens (human) THP1 cells assessed as inhibition of LPS-induced IL6 production at 10 uM incubated for 30 min prior to LPS-challenge measured after 24 hr by ELISA. It counts as functional. For orientation: ELISA stands for enzyme-linked immunosorbent assay.
The test system of series [11] is Radical scavenging activity. As to the kind of experiment: Antioxidant activity assessed as DPPH radical scavenging activity at 1 uM after 20 min by spectrophotometric analysis. It counts as functional. In general terms: DPPH is a stable violet radical that fades when it is reduced.
The nature of series [12]: Cytotoxicity against Homo sapiens (human) H460 cells at 10 uM after 48 hr by propidium iodide-based fluorometric assay. It counts as functional. The settings on record: NCI-H460, 48 h, read-out: GI.
The nature of series [13]: Cytotoxicity against Homo sapiens (human) […] cells at 10 uM. It counts as cell-based.
The nature of series [14]: Antioxidant activity assessed as hydroxyl radical scavenging activity at 1 uM by spectrophotometric analysis. It counts as functional.
For series [15], the system named is Calu-1. As to the kind of experiment: Cytotoxicity against Homo sapiens (human) Calu1 cells at 10 uM after 48 hr by propidium iodide-based fluorometric assay. It counts as functional. The settings on record: Calu-1, 48 h, read-out: GI.

Take `O=C(O)c1ccccc1O`: the inhibition is 85% in [1] and 24.8% in series [2].
Consider `CC(=O)Oc1ccccc1C(=O)O`, for which, in series [3], the inhibition came out at 36.9%.
Turning to `COc1cc(OC)c(/C=C/C(=O)c2cccc(NC(=O)c3cccs3)c2)c(OC)c1Br`, the inhibition of growth at 10 µM in series [4] was determined as 98%; in [5], 82%; in series [7], 89%; in [12] it was 72%; in series [15], 85%. Besides, the inhibition in [1] worked out at 41.4%; in series [6], 27.8%; in series [2], 44.7%; in [3], 55.4%. Further, the Activity in [8] came out at 32.7%; in series [11] it was 35.3%; in series [13] it was 53%; in [14], 49.3%. The inhibition at 10 µM in [9] was found to be 80%; in series [10], 96%.
Turning to `COc1cc(OC)c(/C=C/C(=O)c2cccc(NC(=O)c3ccccc3C(F)(F)F)c2)c(OC)c1Br`, the inhibition of growth at 10 µM in series [4] amounted to 6%; in series [5], 6%; in [7], 3%; in series [12], 11%; in series [15] it was 0%. The inhibition amounted to 68.4% in series [1], 39.9% in [6], 76.9% in series [2] and 87.9% in series [3]. In addition, the Activity in series [8] came out at 42.9%; in series [11] it was 44.6%; in [13] it was 62%; in [14], 35.9%. The inhibition at 10 µM came to 85% in [9] and 95% in series [10].
In the case of `COc1cc(OC)c(/C=C/C(=O)c2cccc(NC(=O)c3cccc(F)c3)c2)c(OC)c1Br`, the inhibition of growth at 10 µM was 26% in series [4]; 33% in [5]; 32% in series [7]; 33% in [12]; 31% in series [15]. For the same molecule, the inhibition in [1] amounted to 63.5%; in [6] it was 59.8%; in series [2] it was 72.9%; in series [3], 82.5%. The Activity in [8] turned out to be 39.9%; in [11], 43.3%; in series [13] it was 51%; in [14], 32.2%. The inhibition at 10 µM in [9] was found to be 78%; in [10], 93%.
`COc1ccc(C(=O)Nc2cccc(C(=O)/C=C/c3c(OC)cc(OC)c(Br)c3OC)c2)cc1`: the inhibition of growth at 10 µM in [4] was determined as 98%; in [5], 97%; in series [7] it was 99%; in series [12], 98%; in [15], 99%. Besides, the inhibition amounted to 39.6% in [1], 19.6% in series [6], 34% in series [2] and 38% in [3]. Also, the Activity in series [8] turned out to be 26.9%; in [11], 36.3%; in series [13], 65%; in series [14], 21.2%. Moreover, the inhibition at 10 µM in series [9] is 63%; in [10] it was 94%.
For `COc1cc(OC)c(/C=C/C(=O)c2cccc(NC(=O)c3ccccc3C)c2)c(OC)c1Br`, the inhibition of growth at 10 µM in [4] came out at 21%; in [5], 15%; in series [7], 3%; in series [12] it was 32%; in series [15] it was 0%. Moreover, the inhibition in series [1] came out at 35.5%; in [6], 31.5%; in series [2], 29.7%; in [3], 43.7%. Also, the Activity in [8] worked out at 22.3%; in series [11], 31.1%; in [13], 54%; in series [14], 34.6%. For the same molecule, the inhibition at 10 µM in series [9] was 72%; in [10], 95%.
As for `O=C(O)c1cc(O)c(O)c(O)c1`, the Activity in series [11] is 92.4%.
As to `COc1cc(OC)c(/C=C/C(=O)c2cccc(NC(=O)c3cccc(C(F)(F)F)c3)c2)c(OC)c1Br`, the inhibition of growth at 10 µM turned out to be 6% in series [4]; 15% in [5]; 0% in series [7]; 4% in series [12]; 0% in series [15]. Moreover, the inhibition was 65.5% in series [1], 48.9% in [6], 81.4% in series [2] and 89.2% in series [3]. Further, the values for the Activity in series [8], in series [11] and in series [13] were 40.7%, 45.7% and 65%, respectively. Besides, the inhibition at 10 µM in [9] was 85%; in series [10], 97%.
Consider `COc1cc(OC)c(/C=C/C(=O)c2cccc(NC(=O)c3cccc(Cl)c3)c2)c(OC)c1Br`, for which the inhibition of growth at 10 µM turned out to be 28% in [4]; 26% in series [5]; 35% in series [7]; 17% in [12]; 26% in series [15]. The inhibition was found to be 78.1% in series [1], 53.9% in series [6], 78.2% in series [2] and 86.5% in series [3]. In addition, the figures for the Activity in series [8], in series [11] and in [13] were 38.4%, 45.3% and 25%, respectively. Moreover, the inhibition at 10 µM was found to be 0% in [9] and 64% in series [10].

In general, inhibition refers to the percentage by which the read-out fell short of the control.
